Our source for the Ki values is patent US12018001B2, “Pyrimidine cyclohexenyl glucocorticoid receptor modulators” (priority 2018, dated 2024).

The target of this assay is T1, glucocorticoid receptor (Homo sapiens, UniProt P04150).
T1 construct: host or cells: HepG2
T1 sequence (P04150 1-777): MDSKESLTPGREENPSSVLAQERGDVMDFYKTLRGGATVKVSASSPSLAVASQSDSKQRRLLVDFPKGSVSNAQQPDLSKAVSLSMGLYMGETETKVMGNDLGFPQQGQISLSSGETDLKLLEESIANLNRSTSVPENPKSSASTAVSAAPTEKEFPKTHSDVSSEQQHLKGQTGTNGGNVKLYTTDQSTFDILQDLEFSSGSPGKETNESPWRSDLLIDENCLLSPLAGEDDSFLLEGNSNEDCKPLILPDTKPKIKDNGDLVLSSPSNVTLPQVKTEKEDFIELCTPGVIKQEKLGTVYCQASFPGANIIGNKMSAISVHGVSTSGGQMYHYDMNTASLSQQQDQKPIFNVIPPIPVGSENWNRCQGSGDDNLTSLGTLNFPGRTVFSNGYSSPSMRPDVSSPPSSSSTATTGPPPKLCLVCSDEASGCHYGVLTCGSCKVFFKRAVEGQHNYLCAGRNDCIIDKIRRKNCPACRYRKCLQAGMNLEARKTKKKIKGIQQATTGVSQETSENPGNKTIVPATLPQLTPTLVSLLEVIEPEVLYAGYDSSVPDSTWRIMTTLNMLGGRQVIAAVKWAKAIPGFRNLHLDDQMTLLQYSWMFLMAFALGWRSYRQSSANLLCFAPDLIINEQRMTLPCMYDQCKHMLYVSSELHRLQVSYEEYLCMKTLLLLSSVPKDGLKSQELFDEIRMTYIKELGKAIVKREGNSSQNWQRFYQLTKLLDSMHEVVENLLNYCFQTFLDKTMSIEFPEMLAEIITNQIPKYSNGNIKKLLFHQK
As to the kind of experiment: Hep G2 TAT assay: induction of TAT by dexamethasone in HepG2 cells. The format is cell-based. The procedure:
Glucocorticoid mediated activation of TAT occurs by transactivation of glucocorticoid response elements in the TAT promoter by glucocorticoid receptor-agonist complex.
TAT activity was measured as outlined in the literature by A. Ali et al., J. Med. Chem., 2004, 47, 2441-2452.
HepG2 cells were cultured using MEME media supplemented with 10% (v/v) foetal bovine serum; 2 mM L-glutamine and 1% (v/v) NEAA at 37° C., 5%/95% (v/v) CO2/air. The HepG2 cells were counted and adjusted to yield a density of 0.125×10^6 cells/ml in RPMI 1640 without phenol red, 10% (v/v) charcoal stripped FBS, 2 mM L-glutamine and seeded at 25,000 cells/well in 200 μl into 96 well, sterile, tissue culture micro titre plates, and incubated at 37° C., 5% CO2 for 24 hours
Growth media was removed and replaced with assay media {RPMI 1640 without phenol red, 2 mM L-glutamine+10 μM forskolin}. […] Compounds were serially half log diluted in 100% (v/v) dimethylsulphoxide from a 10 mM stock.
HepG2 cells were then lysed with 30 μl of cell lysis buffer containing a protease inhibitor cocktail for 15 minutes at 4° C. 155 μl of substrate mixture was then added containing 5.4 mM Tyrosine sodium salt, 10.8 mM alpha ketoglutarate and 0.06 mM pyridoxal 5′ phosphate in 0.1 M potassium phosphate buffer (pH 7.4). After 2 hours incubation at 37° C. the reaction was terminated by the addition of 15 μl of 10 M aqueous potassium hydroxide solution, and the plates incubated for a further 30 minutes at 37° C. The TAT activity product was measured by absorbance at λ 340 nm.
[compound] and fitting the data to a 4 parameter logistic equation.
As for `O=c1[nH]c(C2CC=C(c3cc(CO)ccc3Cl)CC2)c(Cc2ccccc2)c(=O)[nH]1` (centres unmarked) [Example 28], the Ki came out at 150 nM.

Consider `COc1ccc(C2=CCC(c3[nH]c(=O)[nH]c(=O)c3Cc3ccccc3)CC2)c(Cl)c1` (centres unmarked) [Example 29], for which the inhibitory constant (Ki) came out at 12 nM.

The compound `Cc1ccncc1C1=CCC(c2[nH]c(=O)[nH]c(=O)c2Cc2ccccc2)CC1` (centres unmarked) [Example 30] gave a Ki of 50 nM.

For the compound `Cn1nccc1C1=CCC(c2[nH]c(=O)[nH]c(=O)c2Cc2ccccc2)CC1` (centres unmarked) [Example 31], the Ki turned out to be 120 nM.

`N#Cc1cccc(C2=CCC(c3[nH]c(=O)[nH]c(=O)c3Cc3ccccc3)CC2)c1` (centres unmarked) [Example 33] showed a Ki of 740 nM.

`O=c1[nH]c(C2CC=C(c3ccc(F)cc3C(F)(F)F)CC2)c(Cc2ccccc2)c(=O)[nH]1` (centres unmarked) [Example 34] showed an inhibitory constant (Ki) of 23 nM.

Turning to `O=c1[nH]c(C2CC=C(c3cccc(Cl)c3C(F)(F)F)CC2)c(Cc2ccccc2)c(=O)[nH]1` (centres unmarked) [Example 35], the Ki was determined as 59 nM.

`O=c1[nH]c(C2CC=C(c3cccc(C(F)(F)F)c3Cl)CC2)c(Cc2ccccc2)c(=O)[nH]1` (centres unmarked) [Example 36]: the inhibitory constant (Ki) is 110 nM.

For the compound `O=c1[nH]c(C2CC=C(c3ccc(C(F)(F)F)cc3F)CC2)c(Cc2ccccc2)c(=O)[nH]1` (centres unmarked) [Example 37], the affinity, expressed as Ki, was 140 nM.

Take `N#Cc1cc(C(F)(F)F)ccc1C1=CCC(c2[nH]c(=O)[nH]c(=O)c2Cc2ccccc2)CC1` (centres unmarked) [Example 38]: the affinity, expressed as Ki, was 75 nM.

`CN1CCN(C(=O)c2ccc(C3=CCC(c4[nH]c(=O)[nH]c(=O)c4Cc4ccccc4)CC3)c(Cl)c2)CC1` (centres unmarked) [Example 41, 5-Benzyl-6-(2′-chloro-4′-(4-methylpiperazine-1-carbonyl)-2,3,4,5-tetrahydro-[1,1′-biphenyl]-4-yl)pyrimidine-2,4(1H,3H)-dione] showed an inhibition constant (Ki) of 480 nM.

Consider `O=C(c1ccc(C2=CCC(c3[nH]c(=O)[nH]c(=O)c3Cc3ccccc3)CC2)c(Cl)c1)N1CCCC1` (centres unmarked) [Example 42, 5-Benzyl-6-(2′-chloro-4′-(pyrrolidine-1-carbonyl)-2,3,4,5-tetrahydro-[1,1′-biphenyl]-4-yl)pyrimidine-2,4(1H,3H)-dione], for which affinity was put at a Ki of 33 nM.

The compound `O=c1[nH]c(C2CC=C(c3cccnc3N3CCCCC3)CC2)c(Cc2ccccc2)c(=O)[nH]1` (centres unmarked) [Example 43, 5-Benzyl-6-(4-(2-(piperidin-1-yl)pyridin-3-yl)cyclohex-3-en-1-yl)pyrimidine-2,4(1H,3H)-dione] had a Ki of 150 nM.

`O=c1[nH]c(C2CC=C(c3cccnc3N3CCCC3)CC2)c(Cc2ccccc2)c(=O)[nH]1` (centres unmarked) [Example 44]: the Ki amounted to 45 nM.

Take `O=c1[nH]c(C2CC=C(c3cccnc3N3CCC(F)(F)CC3)CC2)c(Cc2ccccc2)c(=O)[nH]1` (centres unmarked) [Example 45]: the affinity corresponds to a Ki of 970 nM.

With `CC1(C)CCCN(c2ncccc2C2=CCC(c3[nH]c(=O)[nH]c(=O)c3Cc3ccccc3)CC2)C1` (centres unmarked) [Example 46], affinity was put at a Ki of 300 nM.

For `C[C@@H]1CCCN(c2ncccc2C2=CCC(c3[nH]c(=O)[nH]c(=O)c3Cc3ccccc3)CC2)C1` (some centres unmarked) [Example 47], the inhibition constant (Ki) came out at 400 nM.

On to `C[C@H]1CCCN(c2ncccc2C2=CCC(c3[nH]c(=O)[nH]c(=O)c3Cc3ccccc3)CC2)C1` (some centres unmarked) [Example 48], for which the Ki stood at 130 nM.

In turn, `CO[C@H]1CCCN(c2ncccc2C2=CCC(c3[nH]c(=O)[nH]c(=O)c3Cc3ccccc3)CC2)C1` (some centres unmarked) [Example 49] returned a Ki of 280 nM.

In turn, `Cc1ccc(C2=CCC(c3[nH]c(=O)[nH]c(=O)c3Cc3ccccc3)CC2)c(N2CCCC2)n1` (centres unmarked) [Example 50] came in with a Ki of 14 nM.

On to `O=c1[nH]c(C2CC=C(c3cccnc3C(F)(F)F)CC2)c(Cc2cccc(N3CCCC3)n2)c(=O)[nH]1` (centres unmarked) [Example 51, 5-((6-(Pyrrolidin-1-yl)pyridin-2-yl)methyl)-6-(4-(2-(trifluoromethyl)pyridin-3-yl)cyclohex-3-en-1-yl)pyrimidine-2,4(1H,3H)-dione, formic acid], for which affinity was put at a Ki of 400 nM.

As to `CC(C)Oc1ccc(C2=CCC(c3[nH]c(=O)[nH]c(=O)c3Cc3ccccc3)CC2)c(Cl)c1` (centres unmarked) [Example 52], the affinity corresponds to a Ki of 568 nM.

For `CCOc1ccc(C2=CCC(c3[nH]c(=O)[nH]c(=O)c3Cc3ccccc3)CC2)c(C(F)(F)F)c1` (centres unmarked) [Example 53], the Ki is 51 nM.

On to `CCn1nccc1C1=CCC(c2[nH]c(=O)[nH]c(=O)c2Cc2ccccc2)CC1` (centres unmarked) [Example 54], for which the inhibitory constant (Ki) stood at 1360 nM.

For `CN(C)c1ncc(C2=CCC(c3[nH]c(=O)[nH]c(=O)c3Cc3ccccc3)CC2)cn1` (centres unmarked) [Example 55], the Ki stood at 1480 nM.

Turning to `Cc1nn(C)cc1C1=CCC(c2[nH]c(=O)[nH]c(=O)c2Cc2ccccc2)CC1` (centres unmarked) [Example 58], the inhibition constant Ki worked out at 520 nM.

On to `O=c1[nH]c(C2CC=C(c3ccc(OC(F)(F)F)cc3Cl)CC2)c(Cc2ccccc2)c(=O)[nH]1` (centres unmarked) [Example 60], for which affinity was put at a Ki of 41 nM.

Compound `Cn1ncc2c(C3=CCC(c4[nH]c(=O)[nH]c(=O)c4Cc4ccccc4)CC3)cccc21` (centres unmarked) [Example 61] gave an inhibitory constant (Ki) of 485 nM.

Compound `CC(C)Cn1nccc1C1=CCC(c2[nH]c(=O)[nH]c(=O)c2Cc2ccccc2)CC1` (centres unmarked) [Example 62] displayed a Ki of 884 nM.

The compound `Cc1cc(C2=CCC(c3[nH]c(=O)[nH]c(=O)c3Cc3ccccc3)CC2)n(C)n1` (centres unmarked) [Example 63] displayed an inhibition constant Ki of 632 nM.

For the compound `O=c1[nH]c(C2CC=C(c3ccc(OC(F)(F)F)cc3F)CC2)c(Cc2ccccc2)c(=O)[nH]1` (centres unmarked) [Example 67], the affinity, expressed as Ki, was 120 nM.

`CC(C)Oc1ccc(C2=CCC(c3[nH]c(=O)[nH]c(=O)c3Cc3ccccc3)CC2)c(F)c1` (centres unmarked) [Example 68] came in with an inhibition constant (Ki) of 497 nM.

`CCn1nc(C(F)(F)F)cc1C1=CCC(c2[nH]c(=O)[nH]c(=O)c2Cc2ccccc2)CC1` (centres unmarked) [Example 71] gave an inhibition constant Ki of 148 nM.

`CS(=O)(=O)c1ccc(C2=CCC(c3[nH]c(=O)[nH]c(=O)c3Cc3ccccc3)CC2)c(F)c1` (centres unmarked) [Example 73] registered an inhibitory constant (Ki) of 70 nM.

`CS(=O)(=O)c1ccc(C2=CCC(c3[nH]c(=O)[nH]c(=O)c3Cc3ccccc3)CC2)c(C(F)(F)F)c1` (centres unmarked) [Example 74] yielded an inhibitory constant (Ki) of 264 nM.

`CC(C)n1cc(C2=CCC(c3[nH]c(=O)[nH]c(=O)c3Cc3ccccc3)CC2)c(C(F)(F)F)n1` (centres unmarked) [Example 75] returned an inhibition constant Ki of 223 nM.

The compound `Cn1cc(C2=CCC(c3[nH]c(=O)[nH]c(=O)c3Cc3ccccc3)CC2)c(C(F)(F)F)n1` (centres unmarked) [Example 77] showed a Ki of 170 nM.

In turn, `CCOc1ccc(C2=CCC(c3[nH]c(=O)[nH]c(=O)c3Cc3ccccc3)CC2)c(F)c1` (centres unmarked) [Example 78] showed a Ki of 175 nM.

The compound `CCOc1ccc(C2=CCC(c3[nH]c(=O)[nH]c(=O)c3Cc3ccccc3)CC2)c(F)c1Cl` (centres unmarked) [Example 79] returned a Ki of 530 nM.

`O=c1[nH]c(C2CC=C(c3ccc(Cl)cc3F)CC2)c(Cc2ccccc2)c(=O)[nH]1` (centres unmarked) [Example 81] yielded an inhibition constant (Ki) of 400 nM.

For the compound `CNS(=O)(=O)c1ccc(C2=CCC(c3[nH]c(=O)[nH]c(=O)c3Cc3ccccc3)CC2)c(C(F)(F)F)c1` (centres unmarked) [Example 84], the inhibition constant Ki came out at 259 nM.

Compound `O=c1[nH]c(C2CC=C(c3ccc(OCC4CC4)cc3Cl)CC2)c(Cc2ccccc2)c(=O)[nH]1` (centres unmarked) [Example 85, 5-benzyl-6-(2′-chloro-4′-(cyclopropylmethoxy)-2,3,4,5-tetrahydro-[1,1′-biphenyl]-4-yl)pyrimidine-2,4(1H,3H)-dione] displayed an inhibition constant (Ki) of 1400 nM.

Consider `O=c1[nH]c(C2CC=C(c3ccc(OCCO)cc3Cl)CC2)c(Cc2ccccc2)c(=O)[nH]1` (centres unmarked) [Example 86], for which the affinity corresponds to a Ki of 1160 nM.

The compound `O=c1[nH]c(C2CC=C(c3ccc(OCC(F)(F)F)cc3Cl)CC2)c(Cc2ccccc2)c(=O)[nH]1` (centres unmarked) [Example 87] had an inhibition constant Ki of 453 nM.

The compound `Cn1ncc2cccc(C3=CCC(c4[nH]c(=O)[nH]c(=O)c4Cc4ccccc4)CC3)c21` (centres unmarked) [Example 89] came in with a Ki of 433 nM.

For `CCOc1ccc(C2=CCC(c3[nH]c(=O)[nH]c(=O)c3Cc3ccccc3)CC2)c(Cl)c1F` (centres unmarked) [Example 90], affinity was put at a Ki of 746 nM.

Regarding `CCOc1ccc(C2=CCC(c3[nH]c(=O)[nH]c(=O)c3Cc3ccccc3)CC2)c(F)c1F` (centres unmarked) [Example 91], the affinity, expressed as Ki, was 247 nM.
